According to patent US8741923B2, “Oxadiazole fused heterocyclic derivatives useful for the treatment of multiple sclerosis” (Merck Serono SA, priority 2008, dated 2014):

Assays:
[1] = target: T1, S1P1 (Homo sapiens (Human), UniProt P21453); assay: 35S-GTPγS binding, S1P1 membranes; format: biochemical; conditions: membranes from CHO cells expressing S1P1
Protocol: Receptor binding assay: Membranes were prepared from CHO cells expressing S1P1 or S1P3 for use in ligand and 35S-GTPγS binding studies. Cells were suspended in 50 mM TRIS, pH 7.4, 2 mM EDTA, 250 mM Sucrose (buffer A) and 1× Complete protease inhibitor cocktail (Roche), and disrupted at 4° C. by N2 decompression using a cell disruption bomb (Parr Instrument). Following centrifugation at 1000 RPM for 10 min at 4° C., the supernatant was suspended in buffer A and centrifuged again at 19000 RPM for 60 min at 4° C. The pellet was then suspended in 10 mM HEPES, pH 7.4, 1 mM EDTA, 250 mM Sucrose (Buffer B), and 1× Complete EDTA-free protease inhibitor cocktail and homogenized using a potter. Membranes were flash frozen in liquid N2 and stored at −80° C. [33P]sphingosine 1-phosphate (3000 Ci/mmol; American Radiolabeled Chemicals, Inc.) was added to test compounds in DMSO. […] Specific binding was calculated by subtracting remaining radioactivity in the presence of 1000-fold excess of unlabeled S1P. Binding data were analyzed using the GraphPad Prism program.
Measurements of 35S-GTPγS Binding:
After 60 min incubation at 30° C. on a shaker, plates were centrifuged for 10 min at 2000 RPM. […] Triplicate samples were averaged and expressed as % response relative to S1P activation in absence of compound (n=2).

[2] = target: T1, S1P1; assay: Receptor binding assay ([33P]sphingosine 1-phosphate, SPA) on S1P1 membranes; conditions: membranes from CHO cells expressing S1P1
Protocol: Receptor binding assay: Membranes were prepared from CHO cells expressing S1P1 or S1P3 for use in ligand and 35S-GTPγS binding studies. Cells were suspended in 50 mM TRIS, pH 7.4, 2 mM EDTA, 250 mM Sucrose (buffer A) and 1× Complete protease inhibitor cocktail (Roche), and disrupted at 4° C. by N2 decompression using a cell disruption bomb (Parr Instrument). Following centrifugation at 1000 RPM for 10 min at 4° C., the supernatant was suspended in buffer A and centrifuged again at 19000 RPM for 60 min at 4° C. The pellet was then suspended in 10 mM HEPES, pH 7.4, 1 mM EDTA, 250 mM Sucrose (Buffer B), and 1× Complete EDTA-free protease inhibitor cocktail and homogenized using a potter. Membranes were flash frozen in liquid N2 and stored at −80° C. [33P]sphingosine 1-phosphate (3000 Ci/mmol; American Radiolabeled Chemicals, Inc.) was added to test compounds in DMSO. Membranes and WGA SPA beads (GE Healthcare) were added to give a final volume of 100 μl in 96-well plates with assay concentrations of […] [33P]sphingosine 1-phosphate (respectively for S1P1 or S1P3), 50 mM HEPES, pH 7.5, 5 mM MgCl2, 100 mM NaCl, 0.4% fatty acid-free BSA, 1-5 μg/well of proteins and 100 μg/well of WGA SPA beads. Binding was performed for 60 min at RT on a shaker and bound radioactivity was measured on a PerkinElmer 1450 MicroBeta counter. Specific binding was calculated by subtracting remaining radioactivity in the presence of 1000-fold excess of unlabeled S1P. Binding data were analyzed using the GraphPad Prism program.

T1 sequence (P21453 whole entry, species assumed): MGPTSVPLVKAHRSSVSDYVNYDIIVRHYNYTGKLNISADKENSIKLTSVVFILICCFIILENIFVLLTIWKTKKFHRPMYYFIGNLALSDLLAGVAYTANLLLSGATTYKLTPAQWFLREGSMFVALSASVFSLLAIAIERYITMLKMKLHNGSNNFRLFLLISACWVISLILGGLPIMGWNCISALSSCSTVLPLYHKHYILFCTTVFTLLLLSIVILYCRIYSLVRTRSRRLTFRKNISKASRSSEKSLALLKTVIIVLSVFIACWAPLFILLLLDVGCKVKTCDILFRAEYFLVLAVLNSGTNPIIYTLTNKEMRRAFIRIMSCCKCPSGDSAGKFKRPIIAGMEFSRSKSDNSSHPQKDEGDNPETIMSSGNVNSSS

Structure (SMILES)	EC50 [1]	Ki [2]
COCc1cc(-c2nc(-c3cc(F)c4[nH]cnc4c3)no2)ccc1-c1ccccc1C [Compound 9, 7-fluoro-5-{5-[2-(methoxymethyl)-2′-methylbiphenyl-4-yl]-1,2,4-oxadiazol-3-yl}-1H-benzimidazole]	0.5 nM	–
Cc1cc(-c2nc(-c3ccc4c(c3)CN(C(=O)OC(C)(C)C)CC4)no2)cnc1N1CCCC1C (stereo not shown) [Compound 13, tert-butyl 7-{5-[5-methyl-6-(2-methylpyrrolidin-1-yl)pyridin-3-yl]-1,2,4-oxadiazol-3-yl}-3,4-dihydroisoquinoline-2(1H)-carboxylate]	> 20000 nM	–
Cc1cc(-c2nc(-c3ccc4c(c3)CNCC4)no2)cnc1N1CCCC1C (stereo not shown) [Compound 14, 7-{5-[5-methyl-6-(2-methylpyrrolidin-1-yl)pyridin-3-yl]-1,2,4-oxadiazol-3-yl}-1,2,3,4-tetrahydroisoquinoline]	64 nM	–
Cc1ccccc1-c1ccc(-c2nc(-c3ccc4c(ccn4CC(=O)O)c3)no2)cc1C [Compound 18, {5-[5-(2,2′-dimethylbiphenyl-4-yl)-1,2,4-oxadiazol-3-yl]-1H-indol-1-yl}acetic acid]	3030 nM	–
COCc1cc(-c2nc(-c3cc(C)c4[nH]cnc4c3)no2)ccc1-c1ccccc1C [Compound 26, 5-{5-[2-(methoxymethyl)-2′-methylbiphenyl-4-yl]-1,2,4-oxadiazol-3-yl}-7-methyl-1H-benzimidazole]	38.1 nM	–
CCc1ccccc1-c1ccc(-c2nc(-c3ccc4c(c3)CN(CC(=O)O)CC4)no2)cc1COC [Compound 30, [7-{5-[2′-ethyl-2-(methoxymethyl)biphenyl-4-yl]-1,2,4-oxadiazol-3-yl}-3,4-dihydroisoquinolin-2(1H)-yl]acetic acid]	4.39 nM	–
CCc1ccccc1-c1ccc(-c2nc(-c3ccc4c(c3)CN(CCC(=O)O)CC4)no2)cc1COC [Compound 31, 3-[7-{5-[2′-ethyl-2-(methoxymethyl)biphenyl-4-yl]-1,2,4-oxadiazol-3-yl}-3,4-dihydroisoquinolin-2(1H)-yl]propanoic acid]	2.52 nM	–
COCc1cc(-c2nc(-c3ccc4cc(C(=O)O)[nH]c4c3)no2)ccc1-c1ccccc1C [Compound 32, 6-{5-[2-(methoxymethyl)-2′-methylbiphenyl-4-yl]-1,2,4-oxadiazol-3-yl}-1H-indole-2-carboxylic acid]	30.8 nM	–
COCc1cc(-c2nc(-c3ccc4c(c3)CN(CCC(=O)O)CC4)no2)ccc1-c1ccccc1C [Compound 35, 3-[7-{5-[2-(methoxymethyl)-2′-methylbiphenyl-4-yl]-1,2,4-oxadiazol-3-yl}-3,4-dihydroisoquinolin-2(1H)-yl]propanoic acid]	–	0.23 nM
Cc1ccccc1-c1ccc(-c2nc(-c3ccc4c(c3)CN(CC(=O)O)CC4)no2)cc1C(F)(F)F [Compound 36, [7-{5-[2′-methyl-2-(trifluoromethyl)biphenyl-4-yl]-1,2,4-oxadiazol-3-yl}-3,4-dihydroisoquinolin-2(1H)-yl]acetic acid]	–	0.49 nM
Cc1ccccc1-c1ccc(-c2nc(-c3ccc4c(c3)CN(CCC(=O)O)CC4)no2)cc1C(F)(F)F [Compound 39, 3-[7-{5-[2′-methyl-2-(trifluoromethyl)biphenyl-4-yl]-1,2,4-oxadiazol-3-yl}-3,4-dihydroisoquinolin-2(1H)-yl]propanoic acid]	–	0.6 nM

The next lines start with the values.

EC50 [1]	Ki [2]	Structure (SMILES)
10 nM	–	CC1CCCCN1c1ccc(-c2nc(-c3ccc4[nH]cnc4c3)no2)cc1C#N (stereo not shown) [Compound 2, 5-[3-(1H-benzimidazol-5-yl)-1,2,4-oxadiazol-5-yl]-2-(2-methylpiperidin-1-yl)benzonitrile]
2.5 nM	–	COCc1cc(-c2nc(-c3ccc4[nH]cnc4c3)no2)ccc1N1CCCCC1C (stereo not shown) [Compound 6, 5-{5-[3-(methoxymethyl)-4-(2-methylpiperidin-1-yl)phenyl]-1,2,4-oxadiazol-3-yl}-1H-benzimidazole]
14 nM	–	CC1CCCCN1c1ccc(-c2nc(-c3cc(F)c4[nH]cnc4c3)no2)cc1C(F)(F)F (stereo not shown) [Compound 7, 7-fluoro-5-{5-[4-(2-methylpiperidin-1-yl)-3-(trifluoromethyl)phenyl]-1,2,4-oxadiazol-3-yl}-1H-benzimidazole]
7 nM	–	Cc1cc(-c2noc(-c3ccc(N4CCCCC4C)c(C(F)(F)F)c3)n2)cc2nc[nH]c12 (stereo not shown) [Compound 8, 7-methyl-5-{5-[4-(2-methylpiperidin-1-yl)-3-(trifluoromethyl)phenyl]-1,2,4-oxadiazol-3-yl}-1H-benzimidazole]
1330 nM	–	Cc1ccccc1-c1ccc(-c2nc(-c3ccc4c(ccn4C)c3)no2)cc1C [Compound 17, 5-[5-(2,2′-dimethylbiphenyl-4-yl)-1,2,4-oxadiazol-3-yl]-1-methyl-1H-indole]
1270 nM	–	CC1CCCCN1c1ccc(-c2nc(-c3ccc4c(ccn4C)c3)no2)cc1[N+](=O)[O-] (stereo not shown) [Compound 19, 1-methyl-5-{5-[4-(2-methylpiperidin-1-yl)-3-nitrophenyl]-1,2,4-oxadiazol-3-yl}-1H-indole]
468 nM	–	COc1cc2[nH]c(C(=O)O)cc2cc1-c1noc(-c2ccc(N3CCCCC3C)c(C(F)(F)F)c2)n1 (stereo not shown) [Compound 21, 6-methoxy-5-{5-[4-(2-methylpiperidin-1-yl)-3-(trifluoromethyl)phenyl]-1,2,4-oxadiazol-3-yl}-1H-indole-2-carboxylic acid]
42 nM	–	CC1CCCCN1c1ccc(-c2nc(-c3ccc4[nH]ccc4c3)no2)cc1C#N (stereo not shown) [Compound 23, 5-[3-(1H-indol-5-yl)-1,2,4-oxadiazol-5-yl]-2-(2-methylpiperidin-1-yl)benzonitrile]
23 nM	–	C[C@@H]1CCCCN1c1ccc(-c2nc(-c3ccc4[nH]cnc4c3)no2)cc1C(F)(F)F [Compound 28, 5-{5-[4-[(2R)-2-methylpiperidin-1-yl]-3-(trifluoromethyl)phenyl]-1,2,4-oxadiazol-3-yl}-1H-benzimidazole]
3 nM	–	C[C@H]1CCCCN1c1ccc(-c2nc(-c3ccc4[nH]cnc4c3)no2)cc1C(F)(F)F [Compound 29, 5-{5-[4-[(2S)-2-methylpiperidin-1-yl]-3-(trifluoromethyl)phenyl]-1,2,4-oxadiazol-3-yl}-1H-benzimidazole]
0.89 nM	–	CCC1CCCCN1c1ccc(-c2nc(-c3ccc4c(c3)CN(CCC(=O)O)CC4)no2)cc1COC (stereo not shown) [Compound 33, 3-[7-{5-[4-(2-ethylpiperidin-1-yl)-3-(methoxymethyl)phenyl]-1,2,4-oxadiazol-3-yl}-3,4-dihydroisoquinolin-2(1H)-yl]propanoic acid]
1.93 nM	–	CCC1CCCCN1c1ccc(-c2nc(-c3ccc4c(c3)CN(CC(=O)O)CC4)no2)cc1COC (stereo not shown) [Compound 34, [7-{5-[4-(2-ethylpiperidin-1-yl)-3-(methoxymethyl)phenyl]-1,2,4-oxadiazol-3-yl}-3,4-dihydroisoquinolin-2(1H)-yl]acetic acid]
–	0.75 nM	CC1CCCCN1c1ccc(-c2nc(-c3ccc4c(c3)CN(CCC(=O)O)CC4)no2)cc1C(F)(F)F (stereo not shown) [Compound 37, 3-[7-{5-[4-(2-methylpiperidin-1-yl)-3-(trifluoromethyl)phenyl]-1,2,4-oxadiazol-3-yl}-3,4-dihydroisoquinolin-2(1H)-yl]propanoic acid]
–	0.8 nM	CC1CCCCN1c1ccc(-c2nc(-c3ccc4c(c3)CN(CC(=O)O)CC4)no2)cc1C(F)(F)F (stereo not shown) [Compound 38, [7-{5-[4-(2-methylpiperidin-1-yl)-3-(trifluoromethyl)phenyl]-1,2,4-oxadiazol-3-yl}-3,4-dihydroisoquinolin-2(1H)-yl]acetic acid]
